Measured values from US8101777B2, “Ionic liquids based on imidazolium salts incorporating a nitrile functionality” (Ecole Polytechnique Federale de Lausanne, priority 2003, dated 2012).

What was measured:
[1] = Viscosity, Brookfield DV-II+ viscometer; type: physicochemical
Protocol: The 1-methylimidazole and 1,2-dimethylimidazole and chloronitriles are purchased from Fluka, HPF6 and NaBF4 are purchased from Aldrich and are used as received without further purification. The synthesis of the imidazolium salts 1a-5a is performed under an inert atmosphere of dry nitrogen using standard Schlenk techniques in solvents dried using the appropriate reagents and distilled prior to use. All other compounds are made without precautions to exclude air or moisture. IR spectra are recorded on a Perkin-Elmer FT-IR 2000 system. […] Electrospray ionization mass spectra (ESI-MS) are recorded on a ThermoFinnigan LCQ™ Deca XP Plus quadrupole ion trap instrument on sample diluted in methanol.^19 Samples are infused directly into the source at 5 μL min^−1 using a syringe pump and the spray voltage is set at 5 kV and the capillary temperature at 50° C. Samples 2c, 3c, 4a, 4b and 4c are purified by filtration through silica and left under vacuum (ca. 0.1 mm Hg) at 40-50° C. in order to remove traces of salt impurities and volatile components. […] Density is determined with a picometer at room temperature (20±1° C.) on 1.0 ml of sample. The measurements are repeated three times and average values are used. Viscosities are measured with a Brookfield DV-II+ viscometer on 0.50 ml of sample. […] The measurements are performed in duplicate.

[2] = Solubility in common solvents
[3] = Density determined with a picometer; type: physicochemical; settings: room temperature (20±1° C.), 1.0 ml of sample, average of three
Protocol: The 1-methylimidazole and 1,2-dimethylimidazole and chloronitriles are purchased from Fluka, HPF6 and NaBF4 are purchased from Aldrich and are used as received without further purification. The synthesis of the imidazolium salts 1a-5a is performed under an inert atmosphere of dry nitrogen using standard Schlenk techniques in solvents dried using the appropriate reagents and distilled prior to use. All other compounds are made without precautions to exclude air or moisture. IR spectra are recorded on a Perkin-Elmer FT-IR 2000 system. […] Electrospray ionization mass spectra (ESI-MS) are recorded on a ThermoFinnigan LCQ™ Deca XP Plus quadrupole ion trap instrument on sample diluted in methanol.^19 Samples are infused directly into the source at 5 μL min^−1 using a syringe pump and the spray voltage is set at 5 kV and the capillary temperature at 50° C. Samples 2c, 3c, 4a, 4b and 4c are purified by filtration through silica and left under vacuum (ca. 0.1 mm Hg) at 40-50° C. in order to remove traces of salt impurities and volatile components. […] Density is determined with a picometer at room temperature (20±1° C.) on 1.0 ml of sample. The measurements are repeated three times and average values are used. Viscosities are measured with a Brookfield DV-II+ viscometer on 0.50 ml of sample. The temperature of the samples is maintained to 25±1° C. by means of an external temperature controller. The measurements are performed in duplicate.

[4] = Stability of the nitrile-functionalised anion towards catalytic hydrogenation; type: physicochemical; settings: 8 mg with RuCl2(PMe3)4 (1 mg) in acetone, H2 40 bar, 35° C., 48 hours
Protocol: The stability of the nitrile-functionalised anion towards catalytic hydrogenation is tested by pressurising a solution of K[CH3CH(BF3)CH2CN] (8 mg) and RuCl2(PMe3)4 (1 mg) in acetone (0.4 ml) with H2 (40 bar) at 35° C.

[5] = 25±1° C., 0.50 ml of sample, duplicate

| Compound | Viscosity ([1]; 20° C.) | Viscosity [1, 5] | Solubility in common solvents: Acetone [2] | Solubility in common solvents: Et2O [2] | Solubility in common solvents: EtOH [2] | Solubility in common solvents: H2O [2] | Solubility in common solvents: Hexane [2] | Density [3] | Reduction of the nitrile-functionalised anion under catalytic hydrogenation [4] |
| --- | --- | --- | --- | --- | --- | --- | --- | --- | --- |
| Cn1cc[n+](CCCC(=O)O)c1.F[B-](F)(F)F [[C3COOHmim][BF4], 1-methyl-3-proylcarboxylimidazolium tetrafluoroborate, reference compound] | 4415 cp | – | – | – | – | – | – | – | – |
| [1-propylnitrile-3-methylimidazolium]BF4 [[C3CNmim][BF4]] | 230.0 cp | 230 mpa · s | miscible | immiscible | immiscible | miscible | immiscible | 1.87 g/mL | – |
| CC(CC#N)[B-](F)(F)F.[K+] (stereo not drawn) [K[CH3CH(BF3)CH2CN]] | – | – | – | – | – | – | – | – | No reduction was observed |
| [1-butylnitrile-3-methylimidazolium]BF4 [[C4CNmim][BF4]] | – | 552.9 mpa · s | miscible | immiscible | immiscible | miscible | immiscible | 1.71 g/mL | – |
| [1-ethyinitrile-3-methylimidazolium]BF4 [[C2CNmim][BF4]] | – | 65.5 mpa · s | miscible | immiscible | miscible | miscible | immiscible | 2.15 g/mL | – |
| C=CC[n+]1ccn(C)c1.F[B-](F)(F)F [[CC═Cmim][BF4], 1-methyl-3-allylimidazolium tetrafluoroborate, reference compound] | 6110 cp | – | – | – | – | – | – | – | – |
| CCCCn1cc[n+](C)c1.F[P-](F)(F)(F)(F)F [[C4mim][PF6], reference compound] | – | 320.3 mpa · s | miscible | immiscible | partly | partly | immiscible | 1.37 g/mL | – |
| [1-ethylnitrile-3-methylimidazolium]Cl [[C2CNmim][Cl]] | – | 2856 mpa · s | immiscible | immiscible | miscible | miscible | immiscible | 2.67 g/mL | – |
| CCCCn1cc[n+](C)c1.F[B-](F)(F)F [[C4mim][BF4], 1-methyl-3-butylimidazolium tetrafluoroborate, reference compound] | 115.2 cp | 115.2 mpa · s | miscible | immiscible | immiscible | miscible | – | 1.14 g/mL | – |
| [1-butylnitrile-3-methylimidazolium]PF6 [[C4CNmim][PF6]] | – | 2181 mpa · s | miscible | immiscible | immiscible | partly | immiscible | 1.99 g/mL | – |
| [1-butylnitrile-3-methylimidazolium]Cl [[C4CNmim][Cl]] | – | 5222 mpa · s | immiscible | immiscible | miscible | miscible | immiscible | 1.61 g/mL | – |
